Experimental data: patent US12679825B2, “Crystalline and amorphous forms of a δ-opioid modulator” (Trevena, Inc., priority 2020, dated 2026)
Converted amounts (≈) assume the structure as drawn.

Experiment: Approximate solubility by solvent addition technique
Assay type: physicochemical
Details: heating to 40° C. between solvent aliquots; for Approximate Solubility: 20° C.; for solubility: 20 °C, thermodynamic from solid
Procedure: The approximate solubility values of the amorphous free base in the selected solvent systems (see Table 1) was estimated by the solvent addition technique. The following procedure was used for the study: • Approximately 10 mg of material was weighed out into 18×2 mL push-cap vials. • Each solvent/solvent mixture was added to the appropriate vial in 5 volume aliquots (50 μL) until either 1 mL of solvent had been added or until the material dissolved. • In between additions, the sample was stirred at 40° C. • If 1000 μL of solvent was added without dissolution of the material, solubility was calculated to be below this point. • Once addition was complete, all experiments were temperature cycled between 40° C. and 5° C. (1 h hold; 0.1° C./min ramp/cool) for ca. 21 h. • Residual solids were isolated by centrifugation (0.22 μm nylon filter) or by decanting the mother liquor and analyzed by XRPD. • Anti-solvent addition (ASA) at 20° C. was carried out on solutions, followed by further temperature cycling for 21 h. • Any solids were then isolated by centrifugation (0.22 μm nylon filter) or by decanting the mother liquor and analyzed by XRPD. • Experiments which remained solutions had further AS added at 20° C. and were temperature cycled for a further 21 h. • Residual solids were isolated by centrifugation (0.22 μm nylon filter) or by decanting the mother liquor and analyzed by XRPD. • Selected isolated material was dried under vacuum at ambient temperature (ca. 20° C.) for ca. 19-21 h then re-analyzed by XRPD. • Selected dried solids were analyzed by PLM, TG/DSC, DSC, ^1H NMR spectroscopy and HPLC. • Further details can be found in Table 1.
The approximate solubility values of the amorphous free base in a range of different solvent systems was determined at ambient temperature, with heating to 40° C. between solvent aliquots. The solutions and slurries obtained were then used in initial small-scale crystallization trials (see Table 1 for details). […] The material formed gel in water. • Oiling was observed after ASA to experiments carried out in acetone, acetonitrile, DMSO, ethanol, MEK and 2-propanol. • Gum formed after ASA to experiments carried out in anisole, dichloromethane, ethyl acetate, 2-Me THF, toluene, ethanol:water 75:25 v/v and methanol:water 77:23 v/v. • After further temperature cycling, solids were obtained from experiments carried out using tBME, MEK and THF as the initial solvent system. […] (peak at 97° C.) during the first heat. A glass transition with a mid-point half-height of ca. 32° C. was observed during the first cool. […] The residual tBME could not be quantified, due to overlapping signals with the API. Residual heptane was observed, equal to 0.46% w/w, or 0.02 equivalents. • See Table 2 for further details.
Approximate solubility studies were carried out using the amorphous free base in a range of different solvent systems at 20° C., heating to 40° C. between additions of solvent aliquots. […] Poor solubility (≤10 mg/mL) was obtained in water, tBME and heptane, giving limited options for antisolvents. Once the solubility screen was complete, the residual slurries and solutions were temperature cycled, with anti-solvent addition then carried out where experiments remained solutions. […] Poorly crystalline material was isolated from 2-propanol:heptane 20:80 v/v %. Amorphous, or predominantly amorphous material was recovered from 7 experiments, using heptane, dichloromethane:heptane 20:80 v/v %, ethyl acetate:heptane 22:78 v/v %, 2-Me THF:heptane 38:62 v/v %, toluene:heptane 38:62 v/v %, ethanol:water 34:66 v/v % and methanol:water 48:52 v/v %. The remaining experiments yielded gel or oil.

## COCCOc1cccc([C@@H]2CCN(CCn3cccc3)[C@H](C)[C@H]2COc2ccc3c(c2)C(=O)NC3)c1 [free base, (−)-6-{[(trans,trans)-4-[3-(2-methoxyethoxy)phenyl]-2-methyl-1-[2-(1H-pyrrol-1-yl)ethyl]piperidin-3-yl]methoxy}-2,3-dihydro-1H-isoindol-1-one]
2-Methyl THF
  Approximate Solubility: >200 mg/mL
2-Propanol
  Approximate Solubility: >200 mg/mL
2-methyl THF, organic solvent or mixture
  solubility: > 200 mg/mL
2-propanol, organic solvent or mixture
  solubility: > 200 mg/mL
Acetone
  Approximate Solubility: >200 mg/mL
Acetonitrile
  Approximate Solubility: >200 mg/mL
Anisole
  Approximate Solubility: >200 mg/mL
DMSO, organic solvent or mixture
  solubility: > 200 mg/mL
DMSO
  Approximate Solubility: >200 mg/mL
Dichloromethane
  Approximate Solubility: >200 mg/mL
Ethanol
  Approximate Solubility: >200 mg/mL
Ethyl acetate
  Approximate Solubility: >200 mg/mL
MEK (methyl ethyl ketone), organic solvent or mixture, MEK
  solubility: > 200 mg/mL
MEK
  Approximate Solubility: >200 mg/mL
Methanol
  Approximate Solubility: >200 mg/mL
THF, organic solvent or mixture
  solubility: > 200 mg/mL
THF
  Approximate Solubility: >200 mg/mL
Toluene
  Approximate Solubility: >200 mg/mL
acetone, organic solvent or mixture
  solubility: > 200 mg/mL
acetonitrile, organic solvent or mixture
  solubility: > 200 mg/mL
anisole, organic solvent or mixture
  solubility: > 200 mg/mL
dichloromethane, organic solvent or mixture
  solubility: > 200 mg/mL
ethanol, organic solvent or mixture
  solubility: > 200 mg/mL
ethanol:water 75:25 v/v, aqueous with cosolvent or surfactant or cyclodextrin, Ethanol:Water 75:25 v/v
  solubility: > 200 mg/mL
Ethyl acetate, organic solvent or mixture
  solubility: > 200 mg/mL
heptane, organic solvent or mixture
  solubility: ≤ 10 mg/mL
methanol, organic solvent or mixture
  solubility: > 200 mg/mL
methanol:water 77:23 v/v, aqueous with cosolvent or surfactant or cyclodextrin, Methanol:Water 77:23 v/v
  solubility: 50 mg/mL (≈ 99.3 mM)
tBME, organic solvent or mixture
  solubility: ≤ 10 mg/mL
toluene, organic solvent or mixture
  solubility: > 200 mg/mL
water
  solubility: ≤ 10 mg/mL
